The values that follow come from PMC7828111, “In Search for Multi-Target Ligands as Potential Agents for Diabetes Mellitus and Its Complications—A Structure-Activity Relationship Study on Inhibitors of Aldose Reductase and Protein Tyrosine Phosphatase 1B” (Molecules, 2021).

One data set has as its target T1, human recombinant PTP1B (Homo sapiens, UniProt P18031).
T1 sequence (P18031 1-435): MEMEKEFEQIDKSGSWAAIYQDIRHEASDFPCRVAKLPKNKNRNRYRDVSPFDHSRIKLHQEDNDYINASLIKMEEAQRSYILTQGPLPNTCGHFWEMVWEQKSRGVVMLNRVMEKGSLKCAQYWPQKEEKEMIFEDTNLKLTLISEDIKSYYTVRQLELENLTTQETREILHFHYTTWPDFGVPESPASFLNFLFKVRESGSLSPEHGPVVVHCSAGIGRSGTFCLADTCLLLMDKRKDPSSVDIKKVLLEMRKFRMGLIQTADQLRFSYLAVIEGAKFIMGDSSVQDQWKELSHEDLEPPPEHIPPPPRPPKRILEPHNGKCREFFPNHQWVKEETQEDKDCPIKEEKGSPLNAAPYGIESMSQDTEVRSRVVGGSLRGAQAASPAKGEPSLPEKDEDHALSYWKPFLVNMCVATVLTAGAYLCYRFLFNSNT
The data set can be described thus: Inhibition of human recombinant PTP1B, p-nitrophenyl phosphate as substrate. The class given is biochemical. The conditions noted are these: for remaining activity at 50 µM: residual activity, read-out: PTP1B % enzyme residual activity at the indicated concentration; for remaining activity at 50 µM / IC50: pNPP as substrate; for IC50: human recombinant PTP1B, mean ± S.E.M. The method, then:
PTP1B activity was determined as follow. […] After an appropriate interval time, the reaction was stopped diluting assay solution with 2 mL of KOH 0.1 M. The amount of p-nitrophenol released was determined measuring the absorbance of the solution at 400 nm using a spectrophotometer and a 1-cm optical pathlength (εmM of p-nitrophenol is 18). The IC50 value was determined measuring the pNPP hydrolysis rate in the presence of increasing inhibitor concentration. For each inhibitor, 15–16 different concentrations were used. All tests were carried out in triplicate and data obtained were normalized respect to control sample.

A further data set concerns the target T2, human recombinant AR (Homo sapiens, UniProt P15121).
T2 construct: made in house; host or cells: E. coli BL21(DE3)pLysS
The data set can be described thus: Inhibition of human recombinant AR, L-idose as substrate (NADPH oxidation at 340 nm). The class given is biochemical. The conditions noted are these: for IC50: human recombinant AR, 2 mM L-idose as substrate, mean ± S.E.M; for AR inhibitory potency relative to the corresponding acetic acid analogues 1, 2: less potent than acetic acid analogue, analogue data ref 5; for Inhibition of human AR (in words): at concentrations up to 10 μM. The method, then: The human recombinant AR was expressed in BL21(DE3)pLysS E. coli cells and purified to electrophoretic homogeneity as previously described. The purified enzyme (specific activity 5.0 U/mg) was stored at −80 °C in 10 mM sodium phosphate buffer pH 7.0 containing 2 mM dithiothreitol and 30% (w/v) glycerol. AR activity was determined at 37 °C as previously described evaluating the decrease in absorbance at 340 nm linked to NADPH oxidation. […] One unit of enzyme activity is the amount that catalyzes the conversion of 1 μmol of substrate/min in the above assay conditions.
All compounds tested as aldose reductase inhibitors were dissolved in DMSO and added to the assay mixture containing 8 mU of purified AR. The reaction was started by addition of the substrate. The DMSO concentration in all the assays was kept constant at 0.5% (v/v) in order to avoid effects on AR activity.
The IC50 values were determined by nonlinear regression analysis using Prism GraphPad 6.0 fitting experimental data to the following equation:(1) vi/v0= Max−Min/1+( I/IC50)^slope +Min
In the equation, vi/v0, represents the ratio between the activity measured in the presence of the inhibitor and the activity measured in the absence of inhibitor; Max and Min represent the expected maximal and minimal value of the activity and were fixed at 1 and zero, respectively. Slope, which describes the steepness of curve in the transition region, was fixed at −1. For each compound, at least five different concentrations of inhibitor in the triplicate assay were analyzed.

In a further data set the test system is bovine lens AR. On the set-up: method as in PMID 15781392. The conditions noted are these: glyceraldehyde as substrate; cited from earlier work.
Where [1] appears, read: residual activity, L-idose as substrate, read-out: AR % enzyme residual activity at the indicated concentration.

The term melting point denotes the temperature of the solid-liquid transition. The term IC50 denotes the concentration needed to halve the response being measured. On to `O=C(O)CCN1C(=O)S/C(=C\c2cccc(Oc3ccccc3)c2)C1=O` [3a, 3-{(5Z)-[2,4-Dioxo-5-(3-phenoxyphenyl)methylidene]thiazolidin-3-yl}propanoic acid], for which the melting point is 177 to 180 °C. Besides, at human recombinant PTP1B, the remaining activity at 50 µM amounted to 79%. Moreover, the IC50 at human recombinant AR was determined as 11.9 ± 0.9 µM.
The matching figures for `O=C(O)CCN1C(=O)S/C(=C\c2ccc(Oc3ccccc3)cc2)C1=O` [3b, 3-{(5Z)-[2,4-Dioxo-5-(4-phenoxyphenyl)methylidene]thiazolidin-3-yl}propanoic acid]: 198 to 202 °C, 56% and 43.8 ± 7.1 µM.
As to `O=C(O)CCN1C(=O)S/C(=C\c2cccc(OCc3ccccc3)c2)C1=O` [3c, 3-{(5Z)-[5-(3-Benzyloxyphenyl)methylidene]-2,4-dioxothiazolidin-3-yl}propanoic acid], the melting point was 142 to 145 °C. The remaining activity at 50 µM on human recombinant PTP1B was 76%. The concentration for half-maximal inhibition (IC50) on human recombinant AR was 14.3 ± 1 µM.
For the compound `O=C(O)CCN1C(=O)S/C(=C\c2ccc(OCc3ccccc3)cc2)C1=O` [3d, 3-{(5Z)-[5-(4-Benzyloxyphenyl)methylidene]-2,4-dioxothiazolidin-3-yl}propanoic acid], the melting point was 195 to 199 °C. For the same compound, the remaining activity at 50 µM at human recombinant PTP1B is 77%. Besides, the “Inhibition of human PTP1B by virtual screening hit (in words)” value at human recombinant PTP1B (in vitro evaluation of selected virtual hits, previously conducted) was “moderate capability to inhibit”. For the same compound, the 50% inhibitory concentration (IC50) at human recombinant AR was found to be 35.7 ± 3 µM.
Compound `O=C(O)CCN1C(=O)S/C(=C\c2cccc(OCCc3ccccc3)c2)C1=O` [3e, 3-[(5Z)-2,4-Dioxo-{5-[3-(2-phenylethoxy)phenyl]methylidene}thiazolidin-3-yl]propanoic acid] yielded a melting point of 130 to 133 °C. On human recombinant PTP1B, the remaining activity at 50 µM came to 64%. Moreover, on human recombinant AR, the IC50 turned out to be 27.9 ± 3.1 µM and the “AR inhibitory potency relative to the corresponding acetic acid analogues 1, 2” value was “two orders of magnitude higher”.
Take `O=C(O)CCN1C(=O)S/C(=C\c2ccc(OCCc3ccccc3)cc2)C1=O` [3f, 3-[(5Z)-2,4-Dioxo-{5-[4-(2-phenylethoxy)phenyl]methylidene}thiazolidin-3-yl]propanoic acid]: the melting point lay in the range of 160 to 163 °C. In addition, the remaining activity at 50 µM at human recombinant PTP1B worked out at 46%. At human recombinant AR, the IC50 worked out at 50.2 ± 4.6 µM and the “AR inhibitory potency relative to the corresponding acetic acid analogues 1, 2” value is “two orders of magnitude higher”.
For the compound `O=C(O)CCN1C(=O)/C(=C/c2ccc(Oc3ccccc3)cc2)SC1=S` [4b, 3-{(5Z)[4-Oxo-5-(4-phenoxyphenyl)methylidene-2-thioxothiazolidin-3-yl]}propanoic acid], the melting point lay in the range of 218 to 219 °C. Also, at human recombinant PTP1B, the IC50 is 29.5 ± 0.4 µM. For the same compound, on human recombinant AR, the half-maximal inhibitory concentration (IC50) worked out at 7.6 ± 0.6 µM.
On to `O=C(O)CCN1C(=O)/C(=C/c2cccc(OCc3ccccc3)c2)SC1=S` [4c, 3-{(5Z)-5-[(3-Benzyloxyphenyl)methylidene]-4-oxo-2-thioxothiazolidin-3-yl}propanoic acid], for which the half-inhibitory concentration (IC50) was found to be 42.8 ± 0.7 µM at human recombinant PTP1B and 3.8 ± 0.1 µM on human recombinant AR.
`O=C(O)CCN1C(=O)/C(=C/c2ccc(OCc3ccccc3)cc2)SC1=S` [4d, 3-{(5Z)-5-[(4-Benzyloxyphenyl)methylidene]-4-oxo-2-thioxothiazolidin-3-yl}propanoic acid] came in with a melting point of 170 to 173 °C. In addition, the IC50 at human recombinant PTP1B is 34.9 ± 0.7 µM. At human recombinant AR, the 50% inhibitory concentration (IC50) worked out at 8.4 ± 0.7 µM.
For the compound `O=C(O)C=CCN1C(=O)SC(=Cc2cccc(Oc3ccccc3)c2)C1=O` [5a], the values for the half-inhibitory concentration (IC50) on human recombinant PTP1B and on human recombinant AR were 42.1 ± 0.3 µM and 3.9 ± 0.2 µM, respectively. Besides, the “Inhibitory activity towards bovine lens AR” value in the data set with bovine lens AR is “very scarce inhibitory activity”.
`O=C(O)C=CCN1C(=O)SC(=Cc2ccc(Oc3ccccc3)cc2)C1=O` [5b]: the 50% inhibitory concentration (IC50) at human recombinant PTP1B came to 39.7 ± 0.1 µM. The “Inhibitory activity towards bovine lens AR” value in the data set with bovine lens AR was “almost inactive”. Moreover, the remaining activity at 10 µM at human recombinant AR (setting [1]) amounted to 84%. Besides, the “Inhibition of human AR (in words)” value on human recombinant AR (L-idose as substrate) is recorded as “scarce inhibition”.
In the case of `O=C(O)C=CCN1C(=O)SC(=Cc2ccc(-c3ccccc3)cc2)C1=O` [5c], on human recombinant PTP1B, the IC50 came to 34.8 ± 0.5 µM. The “Inhibitory activity towards bovine lens AR” value in the data set with bovine lens AR was “almost inactive”. Also, the remaining activity at 5 µM at human recombinant AR (at 5 µM, residual activity, L-idose as substrate, read-out: AR % enzyme residual activity at the indicated concentration) was 88%. Besides, the “Inhibition of human AR (in words)” value at human recombinant AR (L-idose as substrate) is listed as “scarce inhibition”.
As for `O=C(O)C=CCN1C(=O)SC(=Cc2cccc3ccccc23)C1=O` [5d, 4-{(5Z)-[5-(1-Naphtylmethylidene)-2,4-dioxothiazolidin-3-yl]}-2-butenoic acid], the melting point lay within 170 to 172 °C. In addition, at human recombinant PTP1B, the IC50 came to 40.3 ± 0.5 µM. Besides, the half-maximal inhibitory concentration (IC50) at human recombinant AR was 3.7 ± 0.2 µM.
The compound `O=C(O)C=CCN1C(=O)SC(=Cc2ccc3ccccc3c2)C1=O` [5e, 4-{(5Z)-[5-(2-Naphtylmethylidene)-2,4-dioxothiazolidin-3-yl]}-2-butenoic acid] registered a melting point of 235 to 238 °C. In addition, the half-maximal inhibitory concentration (IC50) at human recombinant PTP1B stood at 37.1 ± 0.4 µM. For the same compound, the remaining activity at 10 µM on human recombinant AR (setting [1]) turned out to be 86%. Moreover, the “Inhibition of human AR (in words)” value on human recombinant AR (L-idose as substrate) is reported as “scarce inhibition”.
